Several values for one entry are separate records, joined by “and”; a condition that tells them apart may be missing. Equal values may be shown once. Each block holds one compound with its values, some of them ahead of it.
Legend:
Assay in all cases: Competitive isoTOP-ABPP, cell lysates
Type in all cases: binding
EZH2 C503 (Q15910) = EZH2 C503 (Q15910) (Homo sapiens, UniProt Q15910); settings: for isoTOP-ABPP reactivity profile ratio, Q15910_C503: in-vitro_ramos_231
NR3C1 C302 (P04150) = target: T1, NR3C1 C302 (P04150) (Homo sapiens, UniProt P04150); settings: for R value (DMSO/fragment) / isoTOP-ABPP ratio, P04150_C302: 500 μM; for R value (DMSO/fragment): in vitro, MDA-MB-231; for isoTOP-ABPP ratio, P04150_C302: invitro; for isoTOP-ABPP reactivity ratio, P04150_C302 / isoTOP-ABPP reactivity profile ratio, P04150_C302: 500 μm
T1 sequence (P04150 1-777): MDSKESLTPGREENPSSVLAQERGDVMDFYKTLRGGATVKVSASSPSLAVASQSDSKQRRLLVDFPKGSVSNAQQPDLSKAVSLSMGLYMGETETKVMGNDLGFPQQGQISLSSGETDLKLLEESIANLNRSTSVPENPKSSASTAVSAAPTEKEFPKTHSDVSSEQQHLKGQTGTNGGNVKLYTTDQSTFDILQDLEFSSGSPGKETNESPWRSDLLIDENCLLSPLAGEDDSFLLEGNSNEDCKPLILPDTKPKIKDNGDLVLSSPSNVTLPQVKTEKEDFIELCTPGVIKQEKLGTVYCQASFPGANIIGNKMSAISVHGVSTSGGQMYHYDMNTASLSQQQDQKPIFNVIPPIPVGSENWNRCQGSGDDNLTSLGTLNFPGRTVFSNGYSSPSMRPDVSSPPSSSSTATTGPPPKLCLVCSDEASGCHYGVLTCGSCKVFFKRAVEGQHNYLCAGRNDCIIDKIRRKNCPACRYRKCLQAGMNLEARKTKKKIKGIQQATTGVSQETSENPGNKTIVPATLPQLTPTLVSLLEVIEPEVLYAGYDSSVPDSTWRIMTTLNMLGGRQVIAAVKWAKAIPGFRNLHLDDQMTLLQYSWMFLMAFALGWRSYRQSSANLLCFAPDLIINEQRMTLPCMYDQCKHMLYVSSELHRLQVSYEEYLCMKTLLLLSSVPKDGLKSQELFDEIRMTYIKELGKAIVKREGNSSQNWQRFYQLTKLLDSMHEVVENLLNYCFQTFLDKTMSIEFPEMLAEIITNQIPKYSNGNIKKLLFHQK

USP28 C171 (Q96RU2) = target: T2, USP28 C171 (Q96RU2) (Homo sapiens, UniProt Q96RU2); settings: for R value (DMSO/fragment) / isoTOP-ABPP ratio, Q96RU2_C171: 500 μM, invitro
T2 sequence (Q96RU2 1-1077): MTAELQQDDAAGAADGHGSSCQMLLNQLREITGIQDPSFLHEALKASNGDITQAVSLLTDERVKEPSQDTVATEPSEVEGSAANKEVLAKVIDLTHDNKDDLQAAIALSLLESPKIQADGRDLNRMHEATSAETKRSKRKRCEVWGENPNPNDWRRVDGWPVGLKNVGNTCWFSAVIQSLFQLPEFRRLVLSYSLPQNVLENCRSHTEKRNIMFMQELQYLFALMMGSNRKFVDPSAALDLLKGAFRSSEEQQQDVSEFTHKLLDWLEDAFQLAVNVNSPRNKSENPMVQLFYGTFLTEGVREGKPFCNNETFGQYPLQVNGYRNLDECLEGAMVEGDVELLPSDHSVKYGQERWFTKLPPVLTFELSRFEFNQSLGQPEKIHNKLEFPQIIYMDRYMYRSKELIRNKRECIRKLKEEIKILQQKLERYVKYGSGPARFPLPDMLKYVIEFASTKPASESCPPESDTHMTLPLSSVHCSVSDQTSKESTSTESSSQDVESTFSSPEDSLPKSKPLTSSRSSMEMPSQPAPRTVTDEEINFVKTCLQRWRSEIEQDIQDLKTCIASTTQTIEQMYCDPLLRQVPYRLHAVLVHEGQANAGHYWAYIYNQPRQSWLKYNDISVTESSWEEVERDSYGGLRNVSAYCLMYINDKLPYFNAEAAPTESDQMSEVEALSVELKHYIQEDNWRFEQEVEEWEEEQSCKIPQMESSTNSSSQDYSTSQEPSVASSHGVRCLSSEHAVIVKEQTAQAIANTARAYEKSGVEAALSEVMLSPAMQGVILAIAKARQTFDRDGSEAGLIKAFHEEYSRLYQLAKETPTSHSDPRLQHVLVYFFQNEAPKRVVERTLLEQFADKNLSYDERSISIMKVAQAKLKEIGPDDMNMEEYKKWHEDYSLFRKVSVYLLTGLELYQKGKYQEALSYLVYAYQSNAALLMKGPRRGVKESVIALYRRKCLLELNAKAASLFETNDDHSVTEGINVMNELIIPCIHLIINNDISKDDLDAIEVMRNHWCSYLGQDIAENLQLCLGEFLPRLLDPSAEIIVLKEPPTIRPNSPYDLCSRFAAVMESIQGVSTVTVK

Chain of EZH2 C503 (Q15910) (Q15910 whole entry, the tested form may be a part): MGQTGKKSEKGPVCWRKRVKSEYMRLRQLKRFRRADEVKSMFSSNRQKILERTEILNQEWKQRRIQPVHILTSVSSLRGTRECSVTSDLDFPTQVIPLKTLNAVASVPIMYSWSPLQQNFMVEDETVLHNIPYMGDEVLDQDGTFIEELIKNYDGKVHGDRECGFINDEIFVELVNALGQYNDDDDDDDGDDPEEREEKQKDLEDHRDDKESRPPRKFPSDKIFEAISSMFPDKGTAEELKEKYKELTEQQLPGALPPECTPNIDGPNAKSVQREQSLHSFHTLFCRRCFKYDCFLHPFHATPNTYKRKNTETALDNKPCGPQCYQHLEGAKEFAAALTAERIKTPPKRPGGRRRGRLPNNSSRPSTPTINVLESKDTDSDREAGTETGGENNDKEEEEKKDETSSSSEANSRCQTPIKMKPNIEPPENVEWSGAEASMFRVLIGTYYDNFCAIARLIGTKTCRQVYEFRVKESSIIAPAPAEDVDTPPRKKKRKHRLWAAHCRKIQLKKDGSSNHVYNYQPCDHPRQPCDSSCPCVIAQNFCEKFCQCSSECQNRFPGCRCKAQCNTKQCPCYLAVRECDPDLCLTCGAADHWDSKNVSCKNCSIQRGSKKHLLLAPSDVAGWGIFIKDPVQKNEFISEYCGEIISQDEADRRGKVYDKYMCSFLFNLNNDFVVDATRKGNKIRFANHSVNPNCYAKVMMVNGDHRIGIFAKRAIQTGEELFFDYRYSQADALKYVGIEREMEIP
Chain of EZH2 C503 (Q15910) (O75530 whole entry partner, the tested form may be a part): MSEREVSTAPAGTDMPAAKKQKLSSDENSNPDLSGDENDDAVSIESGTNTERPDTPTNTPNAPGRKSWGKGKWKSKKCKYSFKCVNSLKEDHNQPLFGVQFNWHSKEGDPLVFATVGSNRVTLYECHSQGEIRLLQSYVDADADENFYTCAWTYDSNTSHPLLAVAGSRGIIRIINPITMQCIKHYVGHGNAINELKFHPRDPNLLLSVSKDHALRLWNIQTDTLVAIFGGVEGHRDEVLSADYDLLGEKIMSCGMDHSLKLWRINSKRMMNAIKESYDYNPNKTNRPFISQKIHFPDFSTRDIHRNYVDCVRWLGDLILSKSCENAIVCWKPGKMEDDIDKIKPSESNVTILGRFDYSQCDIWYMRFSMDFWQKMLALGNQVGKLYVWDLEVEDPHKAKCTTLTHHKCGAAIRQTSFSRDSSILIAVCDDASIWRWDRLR
Chain of EZH2 C503 (Q15910) (Q15022 whole entry partner, the tested form may be a part): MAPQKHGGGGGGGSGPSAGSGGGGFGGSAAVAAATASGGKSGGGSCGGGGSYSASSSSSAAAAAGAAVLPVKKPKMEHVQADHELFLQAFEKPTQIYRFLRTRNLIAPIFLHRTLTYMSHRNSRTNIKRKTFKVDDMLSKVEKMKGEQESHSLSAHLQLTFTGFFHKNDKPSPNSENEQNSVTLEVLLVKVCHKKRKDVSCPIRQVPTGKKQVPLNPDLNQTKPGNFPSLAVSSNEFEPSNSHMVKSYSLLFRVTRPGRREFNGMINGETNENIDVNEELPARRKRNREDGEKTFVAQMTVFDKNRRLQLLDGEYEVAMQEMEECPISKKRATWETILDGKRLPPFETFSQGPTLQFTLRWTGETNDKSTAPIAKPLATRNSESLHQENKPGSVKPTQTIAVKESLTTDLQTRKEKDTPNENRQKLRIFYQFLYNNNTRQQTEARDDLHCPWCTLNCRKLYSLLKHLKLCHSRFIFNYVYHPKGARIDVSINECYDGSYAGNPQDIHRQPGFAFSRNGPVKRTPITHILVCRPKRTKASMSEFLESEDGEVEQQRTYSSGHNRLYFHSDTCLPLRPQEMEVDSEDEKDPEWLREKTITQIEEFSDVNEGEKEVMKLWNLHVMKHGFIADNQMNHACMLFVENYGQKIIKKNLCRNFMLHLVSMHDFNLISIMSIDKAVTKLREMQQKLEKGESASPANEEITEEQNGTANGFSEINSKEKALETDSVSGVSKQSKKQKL

SMILES: COc1ccc2c(c1)CCCN2C(=O)CCl [compound 2]
R value (DMSO/fragment) (EZH2 C503 (Q15910); 500 μM, invitro, ramos): 2.8
R value (DMSO/fragment) (NR3C1 C302 (P04150)): 2.3
R value (DMSO/fragment) (USP28 C171 (Q96RU2); ramos): 1.1

SMILES: CC(C)CCOCCNC(=O)CCl [compound 27]
isoTOP-ABPP ratio (reactivity profile), P04150_C302 (NR3C1 C302 (P04150); 500 μm in-vitro ramos_231): 1.3 and 1.0
isoTOP-ABPP ratio (reactivity profile), Q96RU2_C171 (USP28 C171 (Q96RU2); 500 μm in-vitro ramos_231): 0.9 and 1.2

SMILES: O=C(CCl)N1CCOCC1 [compound 22]
isoTOP-ABPP ratio (reactivity profile), P04150_C302 (NR3C1 C302 (P04150); 500 μm in-vitro ramos): 0.9

SMILES: O=C(CCl)NC(=O)NC12CC3CC(CC(C3)C1)C2 [compound 12]
isoTOP-ABPP ratio, P04150_C302 (NR3C1 C302 (P04150); ramos): 1.3

SMILES: O=C(CCl)NC12CC3CC(CC(C3)C1)C2 [compound 21]
isoTOP-ABPP ratio (reactivity profile), Q96RU2_C171 (USP28 C171 (Q96RU2); 500 μm in-vitro ramos_231): 1.1

SMILES: Cn1cc(S(=O)(=O)N2CCOCC2)cc1C(=O)NC(=O)CCl [compound 11]
isoTOP-ABPP ratio, Q15910_C503 (EZH2 C503 (Q15910); 500 μM, invitro, ramos): 1.3
isoTOP-ABPP ratio, P04150_C302 (NR3C1 C302 (P04150); ramos): 1.5
isoTOP-ABPP ratio, Q96RU2_C171 (USP28 C171 (Q96RU2); 231): 20.0

SMILES: O=C(CCl)N1CCC(C(O)(c2ccccc2)c2ccccc2)CC1 [compound 20]
isoTOP-ABPP ratio (reactivity profile), Q96RU2_C171 (USP28 C171 (Q96RU2); 500 μm in-vitro ramos): 2.4

SMILES: N#C/C(=C\c1cc(C(F)(F)F)cc(C(F)(F)F)c1)C(N)=O [compound 23]
isoTOP-ABPP ratio (reactivity profile), Q15910_C503 (EZH2 C503 (Q15910); 500 μm in-vitro ramos): 2.0
isoTOP-ABPP ratio (reactivity profile), P04150_C302 (NR3C1 C302 (P04150); 500 μm in-vitro ramos): 4.7
isoTOP-ABPP ratio (reactivity profile), Q96RU2_C171 (USP28 C171 (Q96RU2); 500 μm in-vitro ramos): 1.2

SMILES: C=CC(=O)Nc1cc(F)c(N2CCN(C(=O)OC(C)(C)C)CC2)c(F)c1 [compound 38]
isoTOP-ABPP reactivity ratio, Q96RU2_C171 (USP28 C171 (Q96RU2); 500 μm, in-vitro_ramos_231): 3.3

SMILES: CC(Br)C(=O)Nc1cc(C(F)(F)F)cc(C(F)(F)F)c1 (stereo not shown) [compound 24]
isoTOP-ABPP ratio (reactivity profile), Q15910_C503 (EZH2 C503 (Q15910); 500 μm in-vitro ramos): 1.3

SMILES: CC(Cl)C(=O)Nc1cc(C(F)(F)F)cc(C(F)(F)F)c1 (stereo not shown) [compound 25]
isoTOP-ABPP ratio (reactivity profile), Q15910_C503 (EZH2 C503 (Q15910); 500 μm in-vitro ramos_231): 0.8

SMILES: C=CC(=O)N1CCC(c2noc3ccc(F)cc23)CC1 [compound 37]
isoTOP-ABPP reactivity ratio, P04150_C302 (NR3C1 C302 (P04150); in-vitro_ramos): 0.9

SMILES: O=C(CCl)N1CCN(CC(=O)N2CCOCC2)CC1 [compound 29]
isoTOP-ABPP ratio (reactivity profile), Q15910_C503 (EZH2 C503 (Q15910); 500 μm in-vitro ramos_231): 1.4

The next lines start with the values.

isoTOP-ABPP ratio, Q15910_C503 (EZH2 C503 (Q15910); 500 μM, invitro, ramos): 20.0
SMILES: C=CC(=O)N(c1ccccc1)c1ccc(Br)cc1 [compound 5]

R value (DMSO/fragment) (EZH2 C503 (Q15910); 500 μM, invitro, ramos): 2.0
R value (DMSO/fragment) (NR3C1 C302 (P04150)): 7.6
R value (DMSO/fragment) (USP28 C171 (Q96RU2); ramos): 1.7
SMILES: O=C(CCl)Nc1cc(C(F)(F)F)cc(C(F)(F)F)c1 [compound 3]

isoTOP-ABPP ratio, P04150_C302 (NR3C1 C302 (P04150); 231): 4.1
isoTOP-ABPP ratio, Q96RU2_C171 (USP28 C171 (Q96RU2); 231): 1.4
SMILES: O=C(CCl)N1CCN(S(=O)(=O)c2ccccc2F)CC1 [compound 10]

isoTOP-ABPP reactivity ratio, Q15910_C503 (EZH2 C503 (Q15910); 500 μm, in-vitro_ramos): 1.7
SMILES: CC(C)(C)c1cc(NC(=O)CCl)on1 [compound 32]

isoTOP-ABPP ratio, Q15910_C503 (EZH2 C503 (Q15910); 500 μM, invitro, 231): 1.8
isoTOP-ABPP ratio, Q96RU2_C171 (USP28 C171 (Q96RU2); 231): 0.8
SMILES: CNS(=O)(=O)C=Cc1ccc2c(ccn2Cc2ccccc2)c1 [compound 6]

isoTOP-ABPP reactivity profile ratio, Q96RU2_C171 (USP28 C171 (Q96RU2); 500 μm, in-vitro_ramos_231): 0.9
SMILES: C=CC(=O)N(c1ccccc1)C1CCCCC1 [compound 46]

isoTOP-ABPP reactivity ratio, P04150_C302 (NR3C1 C302 (P04150); in-vitro_ramos): 0.9
SMILES: O=C(CCl)Nc1ccccc1C1CCCCCC1 [compound 35]

isoTOP-ABPP reactivity profile ratio, Q15910_C503 (EZH2 C503 (Q15910); 500 μm): 0.9
isoTOP-ABPP reactivity profile ratio, P04150_C302 (NR3C1 C302 (P04150); in-vitro_ramos): 1.8
SMILES: O=C(CCl)Nc1ccc(-c2ccccc2)cc1 [compound 52]

isoTOP-ABPP ratio, Q15910_C503 (EZH2 C503 (Q15910); 500 μM, invitro, 231): 0.8
isoTOP-ABPP ratio (reactivity profile), P04150_C302 (NR3C1 C302 (P04150); 500 μm in-vitro ramos): 0.9
SMILES: C=CC(=O)N(Cc1cccnc1)c1ccc(Oc2ccccc2)c(C(F)(F)F)c1 [compound 15]

isoTOP-ABPP reactivity profile ratio, Q15910_C503 (EZH2 C503 (Q15910); 500 μm): 20.0
isoTOP-ABPP reactivity profile ratio, P04150_C302 (NR3C1 C302 (P04150); in-vitro_ramos_231): 1.5
SMILES: COc1cc(NC(=O)CCl)cc(OC)c1 [compound 43]

isoTOP-ABPP ratio, Q15910_C503 (EZH2 C503 (Q15910); 500 μM, invitro, ramos): 0.8
isoTOP-ABPP ratio, Q96RU2_C171 (USP28 C171 (Q96RU2); ramos): 2.4
SMILES: O=C(CCl)NCCc1c[nH]c2ccccc12 [compound 13]

R value (DMSO/fragment) (EZH2 C503 (Q15910); 250 μM, in vitro, Ramos): 1.5
SMILES: COc1ccc(C2CC(c3cccs3)=NN2C(=O)CCl)cc1 (stereo not shown) [compound 4]
